Laboratory results: patent US20160287565A1, “COMBINATION THERAPY FOR TREATING DISORDERS ASSOCIATED WITH EXCESS CORTISOL PRODUCTION” (Millendo Therapeutics, Inc., priority 2015, published 2016)

Assays:
Dogs = test: ATR-101 in dogs, serum steroid and steroid precursor levels by LC-MS/MS pre- and post-ACTH stimulation; type: in vivo, dog; details: 3 mg/kg daily 7 days then 30 mg/kg 7 days, oral gavage
Protocol: Changes in steroid and steroid intermediate levels are shown as % reduction as compared to maximum level as measured on Day 0. *Day 1 data used for maximum steroid level. **Day 3 data used for maximum steroid level.
Dogs were administered daily doses of 3 mg/kg of ATR-101 for 7 days by oral gavage, and then 30 mg/kg for 7 days by oral gavage. Blood was collected on day 14 to measure basal steroid and steroid precursor serum levels (pre-ACTH stimulation) and steroid/steroid precursor levels post-ACTH stimulation by LC-MS/MS. For ACTH stimulation, 5 μg/kg (not to exceed 250 μg) of CORTROSYN™ (also known as cosyntropin or synthetic ACTH) was administered via bolus i.v. administration, and blood samples were collected 1 hour post-CORTROSYN™ administration. Changes in steroid and steroid precursor levels are shown as % reduction as compared to maximum level as measured on Day 0, except as noted (see, FIG. 2; *Day 1 data used for maximum steroid level; **Day 3 data used for maximum steroid level).

[1] = test system: human adult patients with Cushing's disease; details: cited from earlier work
[2] = test system: human, adult patients with Cushing's disease; details: cited from earlier work

CC(C)c1cccc(C(C)C)c1NC(=O)NCC1(c2ccc(N(C)C)cc2)CCCC1 [ATR-101, N-(2,6-bis(1-methylethyl)-phenyl)-N′-((1-(4-(dimethylamino)phenyl)cyclopentyl)-methyl)urea]
synthesis of steroids and steroid precursors produced in the adrenal cortex (Dogs; day 14, FIG. 4): broad inhibitory effects | 11-deoxycorticosterone level (Dogs; day 14 serum): decreased | 11-deoxycortisol level (Dogs; day 14 serum): decreased | testosterone level (Dogs; day 14 serum): decreased

N#Cc1ccc([C@H]2CCc3cncn32)c(F)c1 [osilodrostat]
secretion of ACTH ([1]; during LCI699 treatment (day 70) vs day 1, FIG. 2A): increased secretion of ACTH | testosterone levels (in females) ([1]; during LCI699 treatment (day 70), 8 females, FIG. 2C): increased | 11-deoxycortisol level ([1]; during LCI699 treatment (day 70), FIG. 2B): build-up | 11-deoxycorticosterone levels ([1]; during LCI699 treatment (day 70), FIG. 2D): increased | serum cortisol ([1]; during LCI699 treatment (day 70), up to 100 mg/day b.i.d., n=12): decrease in serum cortisol | females developing acne ([2]; 22-week treatment course): three | females developing hirsutism ([2]; 22-week treatment course): two | females with elevated testosterone who developed adverse symptoms of androgen excess ([2]; 22-week treatment course): Four | women with above normal testosterone levels during the treatment course ([2]; of the 12 women who completed 22 weeks, normal range 2-45 ng/dL, 4-60 mg/day): 9
